Literature values in patent publication US12285410B2, “Combination comprising HDAC inhibitor and CD137 agonist for cancer therapy” (4SC AG, priority 2018, dated 2025).

Experiments:
[1] = tested on: different types of blood cancer; conditions: 24 heavily pre-treated patients

| Compound | immunologic and pharmacodynamic activity (at 0.1 mg/kg every 3 weeks) | tolerability (at 0.1 mg/kg every 3 weeks) | treatment-related AE: fatigue (at 0.1 mg/kg every 3 weeks) [%] | treatment-related AE: nausea (at 0.1 mg/kg every 3 weeks) [%] | maximum tolerated dose (every 3 weeks) [mg/kg] | complete remission (one patient), duration [1] [months] | disease control, share of patients [1] [%] | long-term stabilization, share of patients [1] [%] | partial responder (one patient), duration [1] [months] | tolerability [1] |
| --- | --- | --- | --- | --- | --- | --- | --- | --- | --- | --- |
| Urelumab | immunologic and pharmacodynamic activity demonstrated by the induction of IFN-inducible genes and cytokines | relatively well tolerated | 16 | 13 | 0.1 |  |  |  |  |  |
| Cn1cc(-c2ccc(S(=O)(=O)n3ccc(/C=C/C(=O)Nc4ccccc4N)c3)cc2)cn1 [Compound 4SC-202, (E)-N-(2-aminophenyl)-3-(1-((4-(1-methyl-1H-pyrazol-4-yl)phenyl)sulfonyl)-1H-pyrrol-3-yl)acrylamide] |  |  |  |  |  | 28 | 83 | 50 | 8 | well tolerated with few and/or manageable adverse events |
